# Assay results published in patent US6696480B2, “Upregulation of type III endothelial cell nitric oxide synthase by agents that disrupt actin cytoskeletal organization” (Brigham and Women's Hospital, Inc., priority 1998, dated 2004).
# Where two headings read alike, the source gives them in different places.
# Legend:
# ecNOS mRNA = assay: Northern blotting of ecNOS steady-state mRNA in endothelial cells; type: cell-based, human; parameters: ecNOS mRNA levels increased to / ecNOS mRNA levels, % of basal levels / effect on basal ecNOS mRNA levels: unit of the concentration uncertain; conditions: for effect on ecNOS expression (mRNA): 24 hours (FIGS. 9, 11), anaphicoline data not shown
# Protocol: Equal amounts of total RNA (10-20 mg) were separated by 1.2% formaldehyde-agarose gel electrophoresis and transferred overnight onto Hybond nylon membranes. […] All Northern blots were subjected to stringent washing conditions (0.2× SSC/0.1% SDS at 65° C.) prior to autoradiography. RNA loading was determined by rehybridization with human GAPDH probe.
# RhoB [1] = assay: Rho GTP-binding activity, immunoprecipitation of [35S]GTP S-labeled RhoB; type: cell-based, human; parameters: RhoB GTP-binding activity: dose or concentration left out as unconfirmed
# Protocol: (§1) The Rho GTP-binding activity was determined by immunoprecipitation of [^35 S]GTP S-labeled Rho. Briefly, membrane and cytosolic proteins were isolated as previously desribed (Liao, J K and Homcy, C J, J Clin Invest, 1993, 92:2168-2172). Proteins (20 mg) from control and treated endothelial cells were incubated for 30 min at 37° C. in a buffer containing [35 S]GTP S (20 nM), GTP (2 mM), MgCl22 (5 mM), EGTA (0.1 mM), NaCl (50 mM), creatinine phosphate (4 mM), phosphocreatinine kinase (5 units), ATP (0.1 mM), dithiothreitol (1 mM), leupeptin ([…]), aprotinin (50 mg/ml), and phenylmethanesulfonyl fluoride (PMSF, 2 mM). The assay was terminated with excess unlabeled GTP S (100 mM).
# (§2) Samples were then resuspended in 100 ml of immunopricipitation buffer containing Triton-X (1%), SDS (0.1%), NaCl (150 mM), EDTA (5 mM), Tris-HCl (25 mM, pH 7.4), leupeptin (10 mg/ml), aprotinin (10 mg/ml), and PMSF (2 mM). […]
# (§3) The pellets were washed four times in a buffer containing HEPES (50 mM, pH 7.4), NaF (100 mM), sodium phosphate (50 mM), NaCl (100 mM), Triton X-100 (1%), and SDS (0.1%). The final pellet containing the immunoprecipitated [35 S]GTP S-labeled Rho proteins was counted in a liquid scintillation counter (LS 1800, Beckman Instruments, Inc. Fullerton, Calif.). Nonspecific activity was determined in the presence of excess unlabeled GTP S (100 mM).
# RhoA [2] = assay: Rho GTP-binding activity, immunoprecipitation of [35S]GTP S-labeled RhoA; type: cell-based, human; parameters: RhoA GTP-binding activity: dose or concentration left out as unconfirmed
# Protocol: as §1, §2, §3
# RhoA [3] = assay: Rho membrane translocation, immunoblot of membrane and cytosol, RhoA; type: cell-based, human; conditions: mevastatin
# Protocol: (§4) Autoradiography was performed as described earlier.
# RhoB [4] = assay: Rho membrane translocation, immunoblot of membrane and cytosol, RhoB; type: cell-based, human; conditions: mevastatin
# Protocol: as §4
# ecNOS = ecNOS activity, LNMA-inhibitable nitrite production (modified nitrite assay); type: cell-based, human; conditions: for nitrite production: L-mevalonate
# ecNOS protein [5] = tested on: ecNOS protein; parameters: ecNOS protein levels: dose or concentration left out as unconfirmed
# ecNOS protein [6] = assay: Overexpression of Rho mutants, immunoblot of ecNOS protein; type: cell-based, bovine; conditions: about 24 h after transfection
# Protocol: For transfection studies, bovine rather than human endothelial cells were used because of their higher transfection efficiency by the calcium-phosphate precipitation method (12% vs <4%) (15). Bovine endothelial cells (60-70% confluent) were transfected with 15 mg of the indicated cDNAs: the insertless vector (pcDNA3), pcDNA3-c-myc-wtRhoA (wildtype RhoA), and pcDNA3-c-myc-N 19RhoA (dominant-negative RhoA mutant) (Gebbink, M et al., J Cell Biol, 1997, 137:1603-1613). As an internal control for transfection efficiency, pCMV. b-Gal plasmid (5 mg) was co-transfected. Preliminary results using b-galactosidase staining indicate that cellular transfection efficiency was approximately 10% to 14%. The b-galactosidase activity was determined by a chemiluminescence assay (Dual-Light, Tropix, Bedford, Mass.) using a Berthold L9501 luminometer. Approximately 24 h after transfection, cells were harvested for immunoblot analyses of ecNOS expression. The ecNOS protein levels were then standardized to the corresponding levels of transfected RhoA expression as determined by antisera to the corresponding c-myc tag.
# [7] = mevastatin alone or in combination with GGPP or FPP
# Description for human endothelial cells: Confluent endothelial cells were used for all treatment conditions.
molecule,measurement,setting,value
"CC(=O)C(C)=NO [BDM, 2,3-butanedione 2-monoxime]",nonspecific cytotoxicity as cause of increased ecNOS expression,human endothelial cells,does not result from nonspecific cytotoxicity
C=C1[C@@H](C)[C@H]2[C@H](Cc3ccccc3)NC(=O)[C@]23[C@H](OC(C)=O)/C=C/[C@@](C)(O)C(=O)[C@@H](C)C/C=C/[C@H]3[C@@H]1O [Cytochalasin D],effect on ecNOS expression (mRNA),ecNOS mRNA,upregulation of ecNOS
same,nonspecific cytotoxicity as cause of increased ecNOS expression,human endothelial cells,does not result from nonspecific cytotoxicity
"CC(C)=CCC/C(C)=C/CC/C(C)=C/COP(=O)(O)OP(=O)(O)O [FPP, farnesylpyrophosphate]",RhoB GTP-binding activity,RhoB [1],2.7 ± 0.5 fmol/mg/min
same,observable adverse effects on cellular morphology / viability,human endothelial cells,no observable adverse effects
"CC(C)=CCC/C(C)=C/CC/C(C)=C/CC/C(C)=C/COP(=O)(O)OP(=O)(O)O [GGPP, geranylgeranylpyrophosphate]",effect on basal ecNOS mRNA levels,ecNOS mRNA; GGPP (10 (unit uncertain)) alone,did not significantly affect
same,RhoA GTP-binding activity,RhoA [2],4.1 ± 0.3 fmol/mg/min
same,observable adverse effects on cellular morphology / viability,human endothelial cells,no observable adverse effects
"CC[C@H](C)C(=O)O[C@H]1CCC=C2C=C[C@H](C)[C@H](CC[C@@H]3C[C@@H](O)CC(=O)O3)[C@H]21 [mevastatin, Mevastatin]",potency on a molar basis compared to simvastatin,ecNOS mRNA; upregulation of ecNOS,approximately ten times less potent
same,potency on a molar basis compared with lovastatin,ecNOS mRNA; upregulation of ecNOS,equally potent
same,decrease in membrane localization of RhoA,RhoA [3],60±5%
same,increase in RhoA in the cytosol,RhoA [3],65±4%
same,decrease in membrane localization of RhoB,RhoB [4],78±6%
same,increase in RhoB in the cytosol,RhoB [4],87±7%
same,effect on cytosolic RhoA activity,RhoA [2]; [7],not affected
same,effect on cytosolic RhoB activity,RhoB [1]; [7],not affected
same,concentrations that produce cytotoxicity,human endothelial cells,> 50 µM
same,observable adverse effects on cellular morphology / viability,human endothelial cells,no observable adverse effects
"COC(=O)Nc1nc2cc(C(=O)c3cccs3)ccc2[nH]1 [nocodazole, Methyl-(5-[2-thienylcarbonyl]-1H-benzimidazol-2-yl)carbamate]",effect on ecNOS expression (mRNA),ecNOS mRNA,do not increase ecNOS expression
C3 transferase,nitrite accumulation,ecNOS,"31±2.1 nmol/500,000 cells/24 hours"
same,increase in nitrite accumulation,ecNOS; 24 h,3 fold
same,increases in ecNOS expression at lower concentrations,ecNOS protein [5],correspondingly smaller increases
same,ecNOS protein levels augmented by,ecNOS protein [5]; 48 h,250±10%
same,observable adverse effects on cellular morphology / viability,human endothelial cells,no observable adverse effects
L-mevalonate,nitrite production,ecNOS,"8.6±2.9 nmol/500,000 cells/24 h"
same,nitrite production,ecNOS; 3% O2,"9.6±1.3 nmol/500,000 cells/24 h"
same,effect of co-treatment on upregulation of ecNOS expression by simvastatin alone,ecNOS protein [5]; L-mevalonate (100) + simvastatin (1),completely reversed
same,effect on basal ecNOS expression,ecNOS protein [5]; L-mevalonate alone (100),did not have any appreciable effects
same,ecNOS protein levels,"ecNOS protein [5]; L-mevalonic acid (400) co-treatment with simvastatin, hypoxia, 48 h",35±2.4%
same,ecNOS protein levels,"ecNOS protein [5]; L-mevalonic acid alone, cells exposed to hypoxia",25±3.9%
same,observable adverse effects on cellular morphology / viability,human endothelial cells,no observable adverse effects
N19RhoA,increase in ecNOS protein levels,ecNOS protein [6],150±5%
anaphicoline,effect on ecNOS expression (mRNA),ecNOS mRNA,do not increase ecNOS expression
wtRhoA: c-myc-tagged wildtype RhoA overexpressed by transfection,reduction of basal ecNOS protein expression,ecNOS protein [6],15±4%
